{"source": "patent US8148089B2", "about": "“Alpha-synuclein kinase” (Elan Pharma International Limited, priority 2006, dated 2012)", "key": {"[1]": {"tested_on": "synuclein phosphorylation in rat ventral mesencephalon cultures (E46K-Synuclein plus ca-PLK2 lentivirus)", "assay": "Synuclein phosphorylation in RVM transduced with E46K-Synuclein and caPLK2", "assay_type": "cell-based", "conditions": "for EC50: inhibitor 2 h on DIV 17", "protocol": "(§1) Rat Ventral Mesencephalon (RVM) cultures were prepared from E15 Wistar rats. The RVM cultures were cultured for 2 days and transduced with 0.75 MOI E46K-Synuclein lentivirus alone, or 0.75 MOI E46K-Synuclein lentivirus plus 0.75 MOI ca-PLK2 lentivirus. […] Transduced cultures were maintained in neuronal media with B27/1% FBS and 37° C./5% CO2 until treated with inhibitors. On DIV 17 (which corresponds to 15 days after viral transduction of the cultures) cells were treated with inhibitors for two hours. Cells were then harvested as detailed above in neuronal media with B27/1% FBS. A Micro BCA (Pierce) total protein assay, and total synuclein and phospho-synuclein ELISAs were performed on each plate of treated cells using standard methods.\nIn caPLK2 the polo-box has been deleted, activating the Thr to Asp mutation in the kinase activation loop."}, "[2]": {"tested_on": "synuclein phosphorylation in the cellular paradigms tested", "assay": "Inhibition of synuclein phosphorylation, several cellular paradigms", "assay_type": "cell-based"}, "[3]": {"tested_on": "synuclein phosphorylation in MCC", "assay": "Synuclein phosphorylation in MCC treated with TBB", "assay_type": "cell-based, mouse", "conditions": "even at concentrations of 100 μM; data not shown", "protocol": "(§2) Mouse cortical cultures from fetal (i) Swiss-Webster, (ii) C56BL/6 WT and (iii) C56BL/6 E46K-Synuclein Trangenic mice were prepared and maintained in B27/DMEM/1% Penicillin-Streptomycin at 37° C./10% CO2 for three to fourteen days and then treated with kinase inhibitors.\n(§3) Cultures were exposed to inhibitors for two hours in B27/DMEM/1% Penicillin-Streptomycin. Cells were immediately washed in 100 μL of PBS plus Mg^2+ and Ca^2+, and harvested in ice-cold CEB minus EGTA plus protease inhibitors, frozen on dry ice and stored at −80° C. until processed. A Micro BCA (Pierce) total protein assay, and total synuclein and phospho-synuclein ELISAs were performed on each plate of treated cells using standard methods.\nTo confirm that the inhibitory effect DMAT is due to inhibition of […], MCC were treated with TBB, a very specific CKII inhibitor. TBB had no effect on synuclein phosphorylation, even at concentrations of 100 μM (data not shown). Thus, we are confident that the inhibitory effect of DMAT on synuclein phosphorylation is due to its direct activity on PLK2 and not CKII."}, "PLK2": {"target": "PLK2 (Homo sapiens, UniProt Q9NYY3)", "sequence (Q9NYY3 whole entry)": "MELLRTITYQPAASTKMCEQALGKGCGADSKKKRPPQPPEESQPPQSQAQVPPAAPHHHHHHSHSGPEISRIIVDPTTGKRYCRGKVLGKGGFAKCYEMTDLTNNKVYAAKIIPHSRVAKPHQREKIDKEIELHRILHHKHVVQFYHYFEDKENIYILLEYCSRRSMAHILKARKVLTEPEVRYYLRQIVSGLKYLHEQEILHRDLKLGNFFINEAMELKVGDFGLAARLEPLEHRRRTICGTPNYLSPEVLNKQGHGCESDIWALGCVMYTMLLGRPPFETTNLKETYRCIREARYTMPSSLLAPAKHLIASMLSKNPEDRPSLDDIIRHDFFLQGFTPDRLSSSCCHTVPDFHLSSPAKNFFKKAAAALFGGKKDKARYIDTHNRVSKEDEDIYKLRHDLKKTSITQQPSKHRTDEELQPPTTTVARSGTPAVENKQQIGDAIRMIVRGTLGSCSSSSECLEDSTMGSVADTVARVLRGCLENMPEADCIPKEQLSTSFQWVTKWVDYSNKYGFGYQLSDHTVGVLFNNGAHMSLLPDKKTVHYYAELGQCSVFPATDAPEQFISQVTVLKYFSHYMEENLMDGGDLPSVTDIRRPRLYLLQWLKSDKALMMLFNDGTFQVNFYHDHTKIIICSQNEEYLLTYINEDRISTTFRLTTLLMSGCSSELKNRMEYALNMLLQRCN", "assay": "Straight biochemical assay: PLK2-driven synuclein phosphorylation in vitro", "conditions": "Table 19"}, "[4]": {"target": "T1, over-expressed PLK2 (293) (Homo sapiens, UniProt Q9NYY3)", "T1 construct": "expressed in transfected cells; host or cells: HEK-293 naive cells, CMV-promoter expression vector, Lipofectamine 2000", "assay": "Synuclein phosphorylation in HEK-293 cells over-expressing synuclein and PLK2", "assay_type": "cell-based", "conditions": "for Rank order of potency, Over-Expressed PLK2 (293): Table 19; for Rank order of potency, Synuclein + PLK2: Table 22", "protocol": "(§4) All vectors had the sequence coding for the protein of interest. Transfection was accomplished using Lipofectamine 2000 (Invitrogen, Carlsbad, Calif.) with 0.08 μg vector. Cells were washed and harvested 48 hours post-transfection. A Micro BCA (Pierce) total protein assay and total synuclein and phospho-synuclein ELISAs were performed on each plate of treated cells."}, "[5]": {"target": "T2, over-expressed PLK3 (293) (Homo sapiens, UniProt Q9H4B4)", "T2 construct": "expressed in transfected cells; host or cells: HEK-293 naive cells, CMV-promoter expression vector", "assay": "Synuclein phosphorylation in HEK-293 cells over-expressing synuclein and PLK3", "assay_type": "cell-based", "conditions": "for Rank order of potency, Synuclein + PLK3: Table 22", "protocol": "as §4"}, "[6]": {"target": "T3, over-expressed PLK4 (293) (Homo sapiens, UniProt O00444)", "T3 sequence (O00444 1-970)": "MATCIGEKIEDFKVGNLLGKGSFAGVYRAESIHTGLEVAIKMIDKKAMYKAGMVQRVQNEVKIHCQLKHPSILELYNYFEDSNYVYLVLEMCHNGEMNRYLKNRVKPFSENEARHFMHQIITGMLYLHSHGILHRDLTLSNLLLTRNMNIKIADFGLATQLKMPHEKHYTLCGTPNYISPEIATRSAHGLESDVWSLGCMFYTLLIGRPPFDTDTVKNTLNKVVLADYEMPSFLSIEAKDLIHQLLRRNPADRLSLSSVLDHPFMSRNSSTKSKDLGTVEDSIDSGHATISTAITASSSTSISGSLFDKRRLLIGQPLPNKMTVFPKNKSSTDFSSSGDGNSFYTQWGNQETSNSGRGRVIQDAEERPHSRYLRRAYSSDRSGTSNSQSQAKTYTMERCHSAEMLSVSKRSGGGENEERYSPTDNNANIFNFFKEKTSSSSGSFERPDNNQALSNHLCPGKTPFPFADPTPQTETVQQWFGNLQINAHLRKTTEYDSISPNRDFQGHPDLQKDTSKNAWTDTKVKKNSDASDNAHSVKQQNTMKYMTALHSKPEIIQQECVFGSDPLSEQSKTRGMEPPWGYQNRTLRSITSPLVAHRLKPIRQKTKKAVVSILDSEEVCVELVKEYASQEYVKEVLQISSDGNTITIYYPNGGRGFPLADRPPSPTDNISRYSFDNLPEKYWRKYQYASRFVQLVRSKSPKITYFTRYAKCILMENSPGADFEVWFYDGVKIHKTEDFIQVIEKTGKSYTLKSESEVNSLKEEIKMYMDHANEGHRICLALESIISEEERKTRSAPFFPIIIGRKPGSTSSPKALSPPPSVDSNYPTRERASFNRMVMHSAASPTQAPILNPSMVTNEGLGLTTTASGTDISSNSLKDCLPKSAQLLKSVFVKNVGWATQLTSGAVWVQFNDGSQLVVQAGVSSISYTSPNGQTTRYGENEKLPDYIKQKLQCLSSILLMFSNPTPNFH", "assay": "Synuclein phosphorylation in HEK-293 cells over-expressing synuclein and PLK4", "assay_type": "cell-based", "conditions": "for EC50: HEK-293, Example 16, read-out: EC50 based on percent inhibition of synuclein phosphorylation, Synuclein + PLK4", "protocol": "as §4"}, "[7]": {"tested_on": "synuclein phosphorylation in C56BL/6 E46K-Synuclein transgenic mouse cortical cultures", "assay_type": "cell-based", "protocol": "as §2, §3"}, "[8]": {"tested_on": "synuclein phosphorylation in rat ventral mesencephalon cultures (E46K-Synuclein lentivirus)", "assay": "Synuclein phosphorylation in RVM transduced with E46K-Synuclein", "assay_type": "cell-based", "protocol": "as §1"}, "endogenous kinase (293)": {"tested_on": "endogenous kinase (293)", "assay": "Synuclein phosphorylation by endogenous kinase in HEK-293 cells (synuclein + vector)", "assay_type": "cell-based, human", "protocol": "as §4"}, "[9]": {"target": "synuclein phosphorylation by endogenous kinase in C56BL/6 WT mouse cortical cultures", "assay": "Synuclein phosphorylation in WT mouse cortical cultures (WT-MCC)", "assay_type": "cell-based", "conditions": "inhibitor 2 h; phospho-synuclein ELISA", "protocol": "as §2, §3"}}, "note": "Like-named read-outs stand apart in the source and are kept apart here."}
{"molecule": "COC[C@H]1OC(=O)c2coc3c2[C@@]1(C)C1=C(C3=O)[C@@H]2CCC(=O)[C@@]2(C)C[C@H]1OC(C)=O", "note": "[Wortmannin]", "values": [{"measurement": "EC50", "setting": "[1]; Rattus norvegicus", "result": "> 100", "unit": "µM"}]}
{"molecule": "CC[C@@H]1C(=O)N(C)c2cnc(Nc3ccc(C(=O)NC4CCN(C)CC4)cc3OC)nc2N1C1CCCC1", "note": "[ELN-481574-2, 4-[[(7r)-8-cyclopentyl-7-ethyl-5,6,7,8-tetrahydro-5-methyl-6-oxo-2-pteridinyl]amino]-3-methoxy-n-(1-methyl-4-piperidinyl)-benzamide]", "values": [{"measurement": "EC50", "setting": "[2]; most EC50 values, all cellular paradigms, read-out: EC50 values in cellular paradigms", "result": "≤ 0.1", "unit": "µM"}]}
{"molecule": "Brc1c(Br)c(Br)c2[nH]nnc2c1Br", "note": "[TBB, 4,5,6,7-Tetrabromo-2-azabenzimidazole]", "values": [{"measurement": "effect on synuclein phosphorylation", "setting": "[3]", "result": "no effect"}]}
{"molecule": "NC(=O)c1sc2c([N+](=O)[O-])cc(C(F)(F)F)cc2[n+]1[O-]", "note": "[ELN-481080]", "values": [{"measurement": "Rank order of potency, Straight Biochemical", "setting": "PLK2", "result": 3}, {"measurement": "EC50", "setting": "[1]; Rattus norvegicus", "result": 25.2, "unit": "µM"}, {"measurement": "Rank order of potency, Over-Expressed PLK2 (293)", "setting": "[4]", "result": 5}, {"measurement": "Rank order of potency, Synuclein + PLK2", "setting": "[4]", "result": 3}, {"measurement": "Rank order of potency, Synuclein + PLK3", "setting": "[5]", "result": 3}, {"measurement": "inhibition of synuclein phosphorylation by over-expressed PLK3", "setting": "[5]; concentrations of 30-100 μM", "result": "30-40%"}, {"measurement": "EC50", "setting": "[6]", "result": "> 100", "unit": "µM"}, {"measurement": "inhibition of synuclein phosphorylation by over-expressed PLK4", "setting": "[6]; concentrations of 30-100 μM", "result": "30-40%"}, {"measurement": "EC50", "setting": "[2]; range over (most of) the cell types tested, read-out: EC50 values for inhibition of synuclein phosphorylation in the cellular paradigms", "result": "12 to 38", "unit": "µM"}]}
{"molecule": "CN(C)c1nc2c(Br)c(Br)c(Br)c(Br)c2[nH]1", "note": "[DMAT, 2-Dimethylamino-4,5,6,7-tetrabromo-1H-benzimidazole]", "values": [{"measurement": "Rank order of potency, Straight Biochemical", "setting": "PLK2", "result": 2}, {"measurement": "Rank order of potency, E46K-Syn TG MCC", "setting": "[7]; Table 19", "result": 4}, {"measurement": "Rank order of potency, RVM E46K-Synuclein", "setting": "[8]; Table 19", "result": 4}, {"measurement": "EC50", "setting": "[1]; Rattus norvegicus", "result": 28.5, "unit": "µM"}, {"measurement": "Rank order of potency, RVM E46K-Synuclein caPLK2", "setting": "[1]; Table 19", "result": 4}, {"measurement": "Rank order of potency, Synuclein + Vector", "setting": "endogenous kinase (293); Table 22", "result": 2}, {"measurement": "Rank order of potency, Over-Expressed PLK2 (293)", "setting": "[4]", "result": 4}, {"measurement": "Rank order of potency, Synuclein + PLK2", "setting": "[4]", "result": 2}, {"measurement": "Rank order of potency, Synuclein + PLK3", "setting": "[5]", "result": 2}, {"measurement": "EC50", "setting": "[6]", "result": 74.3, "unit": "µM"}, {"measurement": "Rank order of potency, Synuclein + PLK4", "setting": "[6]; Table 22", "result": 2}, {"measurement": "EC50", "setting": "[2]; Homo sapiens, HEK293, read-out: EC50 values for the over-expressed PLKs", "result": "14 to 74", "unit": "µM"}, {"measurement": "EC50", "setting": "[2]; read-out: EC50 values for inhibition of synuclein phosphorylation in the cellular paradigms", "result": "16 to 33", "unit": "µM"}]}
{"molecule": "Scytonemin", "values": [{"measurement": "EC50", "setting": "[9]", "result": "> 100", "unit": "µM"}, {"measurement": "EC50", "setting": "[7]; inhibitor 2 h, phospho-synuclein ELISA, read-out: E46K-Syn TG MCC (EC50)", "result": "> 100", "unit": "µM"}, {"measurement": "EC50", "setting": "[8]; inhibitor 2 h on DIV 17", "result": "> 100", "unit": "µM"}, {"measurement": "EC50", "setting": "[1]", "result": "> 100", "unit": "µM"}, {"measurement": "EC50", "setting": "endogenous kinase (293); Table 18", "result": "> 100", "unit": "µM"}, {"measurement": "inhibition of 50% of synuclein phosphorylation", "setting": "[2]; in any of the cells or in the in vitro assay", "result": "did not inhibit 50% of synuclein phosphorylation"}]}
